Measurements from patent US7906655B2, “Hepatitis C virus inhibitors” (Bristol-Myers Squibb Company, priority 2008, dated 2011).
pEC50: −log10 of the molar value.

System: HCV 1b genotype
Experiment: HCV Replicon assay (HCV-neo replicon cells, wild-type)
Format: cell-based
Conditions: HCV 1b genotype replicon
Procedure: An HCV Replicon assay was utilized in the present disclosure, and was prepared, conducted and validated as described in commonly owned PCT/US2006/022197 and in O'Boyle et. al. Antimicrob Agents Chemother. 2005 April; 49 (4):1346-53. Assay methods incorporating luciferase reporters have also been used as described (Apath.com).
HCV-neo replicon cells and replicon cells containing mutations in the NS5A region were used to test the currently described family of compounds. The compounds were determined to have more than 10-fold less inhibitory activity on cells containing mutations than wild-type cells. Thus, the compounds of the present disclosure can be effective in inhibiting the function of the HCV NS5A protein and are understood to be as effective in combinations as previously described in application PCT/US2006/022197 and commonly owned WO/O4014852. Further, the compounds of the present disclosure can be effective against the HCV 1b genotype. It should also be understood that the compounds of the present disclosure can inhibit multiple genotypes of HCV. […] In one embodiment, compounds of the present disclosure are inhibitory versus 1a, 1b, 2a, 2b, 3a, 4a, and 5a genotypes.

[1] = Hepatitis C virus, class symbols
[2] = Hepatitis C virus, numeric values

Row | Structure (SMILES) | pEC50 [1] | also measured
1 | COC(=O)N[C@@H](C(=O)N1CCC[C@H]1c1nc2c(-c3ncc(-c4ccc5[nH]c([C@@H]6CCCN6C(=O)[C@H](NC(C)=O)c6ccccc6)nc5c4)o3)cccc2[nH]1)c1ccccc1 (mixture of isomers) [Example J6.1, methyl ((1R)-2-((2S)-2-(4-(5-(2-((2S)-1-(acetamido (phenyl)acetyl)-2-pyrrolidinyl)-1H-benzimidazol-5-yl)-1,3-oxazol-2-yl)-1H-benzimidazol-2-yl)-1-pyrrolidinyl)-2-oxo-1-phenylethyl) carbamate] | > 8.34 | 
2 | CC(=O)NC(C(=O)N1CCC[C@H]1c1nc2cc(-c3cnc(-c4cccc5[nH]c([C@@H]6CCCN6C(=O)C(NC(C)=O)c6ccccc6)nc45)o3)ccc2[nH]1)c1ccccc1 (mixture of isomers) [Example J12.1, N-((1R)-2-((2S)-2-(4-(5-(2-((2S)-1-((2R)-2-acetamido-2-phenylacetyl)-2-pyrrolidinyl)-1H-benzimidazol-5-yl)-1,3-oxazol-2-yl)-1H-benzimidazol-2-yl)-1-pyrrolidinyl)-2-oxo-1-phenylethyl) acetamide] | 7.00 to 8.34 | 
3 | CN(C)[C@@H](C(=O)N1CCC[C@H]1c1nc2cc(-c3cnc(-c4cccc5[nH]c([C@@H]6C[C@@H]7C[C@@H]7N6C(=O)[C@@H](c6ccccc6)N(C)C)nc45)o3)ccc2[nH]1)c1ccccc1 (single isomer, unassigned) [Example J25.a] |  | pEC50 (class symbols): 7.00 to 8.34
4 | CN(C)[C@@H](C(=O)N1CCC[C@H]1c1nc2cc(-c3cnc(-c4cccc5[nH]c([C@@H]6C[C@@H]7C[C@@H]7N6C(=O)[C@@H](c6ccccc6)N(C)C)nc45)o3)ccc2[nH]1)c1ccccc1 (single isomer, unassigned) [Example J25] | > 8.34 | 
5 | COC(=O)N[C@@H](C(=O)N1C2C[C@@H]2C[C@H]1c1nc2cc(-c3ccc(-c4ccc5[nH]c([C@@H]6C[C@H]7CC7N6C(=O)[C@H](NC(=O)OC)c6ccccc6)nc5c4)cc3)ccc2[nH]1)c1ccccc1 (single isomer, unassigned) [Example M46.1] | > 8.34 | 
6 | COC(=O)N[C@@H](C(=O)N1C2C[C@@H]2C[C@H]1c1nc2cc(-c3ccc(-c4ccc5[nH]c([C@@H]6C[C@H]7CC7N6C(=O)[C@H](NC(=O)OC)c6ccccc6)nc5c4)cc3)ccc2[nH]1)c1ccccc1 (single isomer, unassigned) [Example M46.2] |  | pEC50 (class symbols): > 8.34
7 | CC(=O)N1CCN(C(=O)OCc2ccccc2)[C@H](c2nc3cc(CCc4ccc5[nH]c([C@@H]6CN(C(C)=O)CCN6C(=O)OCc6ccccc6)nc5c4)ccc3[nH]2)C1 (stereo in doubt) [OL11, benzyl 4-acetyl-2-(5-(2-(2-(4-acetyl-1-((benzyloxy)carbonyl)-2-piperazinyl)-1H-benzimidazol-6-yl)ethyl)-1H-benzimidazol-2-yl)-1-piperazinecarboxylate] | 6.00 to 7.00 | 
8 | CN(C)C(C(=O)N1CCC[C@H]1c1nc2ccc(-c3ccc4[nH]c([C@@H]5CCCN5C(=O)[C@@H](c5ccccc5)N(C)C)nc4c3)cc2[nH]1)c1ccccc1 (stereo partly drawn) [Example F1, (1R,1′R)-2,2′-(1H,1′H-5,5′-bibenzimidazole-2,2′-diyldi(2S)-2,1-pyrrolidinediyl)bis(N,N-dimethyl-2-oxo-1-phenylethanamine)] | > 8.34 | 
9 | COC(=O)N[C@@H](C(=O)N1CCC[C@H]1c1nc2cc(-c3ccc4nc([C@@H]5CCCN5C(=O)[C@H](NC(=O)OC)c5ccccc5)[nH]c4c3)ccc2[nH]1)c1ccccc1 [Example F2, dimethyl(1H,1′H-5,5′-bibenzimidazole-2,2′-diylbis((2S)-2,1-pyrrolidinediyl((1R)-2-oxo-1-phenyl-2,1-ethanediyl)))biscarbamate] | > 8.34 | 
10 | O=C(Cc1ccccc1)N1CCCC[C@H]1c1nc2ccc(CCc3ccc4nc([C@@H]5CCCCN5C(=O)Cc5ccccc5)[nH]c4c3)cc2[nH]1 [Example F3, 5,5′-(1,2-ethanediyl)bis(2-((2S)-1-(phenylacetyl)-2-piperidinyl)-1H-benzimidazole)] | 6.00 to 7.00 | 
11 | CO[C@@H]1C[C@@H](c2nc3cc(CCc4ccc5nc([C@@H]6C[C@@H](OC)CN6C(=O)OCc6ccccc6)[nH]c5c4)ccc3[nH]2)N(C(=O)OCc2ccccc2)C1 [Example F4, benzyl (2S,4R)-2-(5-(2-(2-((2S,4R)-1-((benzyloxy)carbonyl)-4-methoxy-2-pyrrolidinyl)-1H-benzimidazol-6-yl)ethyl)-1H-benzimidazol-2-yl)-4-methoxy-1-pyrrolidinecarboxylate] | > 8.34 | 
12 | CCO[C@@H]1C[C@@H](c2nc3cc(CCc4ccc5nc([C@@H]6C[C@@H](OCC)CN6C(=O)OCc6ccccc6)[nH]c5c4)ccc3[nH]2)N(C(=O)OCc2ccccc2)C1 [Example F5, benzyl (2S,4R)-2-(5-(2-(2-((2S,4R)-1-((benzyloxy)carbonyl)-4-ethoxy-2-pyrrolidinyl)-1H-benzimidazol-6-yl)ethyl)-1H-benzimidazol-2-yl)-4-ethoxy-1-pyrrolidinecarboxylate] | 7.00 to 8.34 | 
13 | CCCO[C@@H]1C[C@@H](c2nc3cc(CCc4ccc5nc([C@@H]6C[C@@H](OCCC)CN6C(=O)OCc6ccccc6)[nH]c5c4)ccc3[nH]2)N(C(=O)OCc2ccccc2)C1 [Example F6, benzyl (2S,4R)-2-(5-(2-(2-((2S,4R)-1-((benzyloxy)carbonyl)-4-propoxy-2-pyrrolidinyl)-1H-benzimidazol-6-yl)ethyl)-1H-benzimidazol-2-yl)-4-propoxy-1-pyrrolidinecarboxylate] |  | pEC50 [2]: 6.32
14 | CC(=O)N[C@@H](C(=O)N1CCC[C@H]1c1nc2cc(-c3ccc4nc([C@@H]5CCCN5C(=O)[C@H](NC(C)=O)c5ccccc5)[nH]c4c3)ccc2[nH]1)c1ccccc1 [Example F7, N,N′-(1H,1′H-5,5′-bibenzimidazole-2,2′-diylbis((2S)-2,1-pyrrolidinediyl((1R)-2-oxo-1-phenyl-2,1-ethanediyl)))diacetamide] | 7.00 to 8.34 | 
15 | CO[C@@H]1C[C@@H](c2nc3cc(C#Cc4ccc5nc([C@@H]6C[C@@H](OC)CN6C(=O)OCc6ccccc6)[nH]c5c4)ccc3[nH]2)N(C(=O)OCc2ccccc2)C1 [Example F8, benzyl (2S,4R)-2-(5-((2-((2S,4R)-1-((benzyloxy)carbonyl)-4-methoxy-2-pyrrolidinyl)-1H-benzimidazol-6-yl)ethynyl)-1H-benzimidazol-2-yl)-4-methoxy-1-pyrrolidinecarboxylate] | > 8.34 | 
16 | CCO[C@@H]1C[C@@H](c2nc3cc(C#Cc4ccc5nc([C@@H]6C[C@@H](OCC)CN6C(=O)OCc6ccccc6)[nH]c5c4)ccc3[nH]2)N(C(=O)OCc2ccccc2)C1 [Example F9, benzyl (2S,4R)-2-(5-((2-((2S,4R)-1-((benzyloxy)carbonyl)-4-ethoxy-2-pyrrolidinyl)-1H-benzimidazol-6-yl)ethynyl)-1H-benzimidazol-2-yl)-4-ethoxy-1-pyrrolidinecarboxylate] |  | pEC50 [2]: 7.70
17 | CC(C)(C)O[C@@H]1C[C@@H](c2nc3cc(C#Cc4ccc5nc([C@@H]6C[C@@H](OC(C)(C)C)CN6C(=O)OCc6ccccc6)[nH]c5c4)ccc3[nH]2)N(C(=O)OCc2ccccc2)C1 [Example F10, benzyl (2S,4R)-2-(5-((2-((2S,4R)-1-((benzyloxy)carbonyl)-4-tert-butoxy-2-pyrrolidinyl)-1H-benzimidazol-6-yl)ethynyl)-1H-benzimidazol-2-yl)-4-tert-butoxy-1-pyrrolidinecarboxylate] | 7.00 to 8.34 | 
18 | O=C(OCc1ccccc1)N1C[C@H](O)C[C@H]1c1nc2cc(C#Cc3ccc4[nH]c([C@@H]5C[C@@H](O)CN5C(=O)OCc5ccccc5)nc4c3)ccc2[nH]1 [Example F11] | > 8.34 | 
19 | COC(=O)N[C@@H](C(=O)N1CCC[C@H]1c1nc2cc(-c3cnc(-c4cccc5[nH]c([C@@H]6CCCN6C(=O)[C@H](NC(=O)OC)c6ccccc6)nc45)o3)ccc2[nH]1)c1ccccc1 [Example J6, Methyl((1R)-2-((2S)-2-(4-(5-(2-((2S)-1-((2R)-2-((methoxycarbonyl)amino)-2-phenylacetyl)-2-pyrrolidinyl)-1H-benzimidazol-5-yl)-1,3-oxazol-2-yl)-1H-benzimidazol-2-yl)-1-pyrrolidinyl)-2-oxo-1-phenylethyl)carbamate] | > 8.34 | 
20 | O=C(Cc1ccccc1)N1CCC[C@H]1c1nc2cc(-c3cnc(-c4cccc5[nH]c([C@@H]6CCCN6C(=O)Cc6ccccc6)nc45)o3)ccc2[nH]1 [Example J7, 2-((2S)-1-(phenylacetyl)-2-pyrrolidinyl)-4-(5-(2-((2S)-1-(phenylacetyl)-2-pyrrolidinyl)-1H-benzimidazol-5-yl)-1,3-oxazol-2-yl)-1H-benzimidazole] | 7.00 to 8.34 | 
21 | COC(=O)N[C@@H](C)C(=O)N1CCC[C@H]1c1nc2cc(-c3cnc(-c4cccc5[nH]c([C@@H]6CCCN6C(=O)[C@H](C)NC(=O)OC)nc45)o3)ccc2[nH]1 [Example J8, methyl ((1S)-2-((2S)-2-(5-(2-(2-((2S)-1-(N-(methoxy-carbonyl)-L-alanyl)-2-pyrrolidinyl)-1H-benzimidazol-4-yl)-1,3-oxazol-5-yl)-1H-benzimidazol-2-yl)-1-pyrrolidinyl)-1-methyl-2-oxoethyl) carbamate] | > 8.34 | 
22 | O=C([C@H](O)c1ccccc1)N1CCC[C@H]1c1nc2cc(-c3cnc(-c4cccc5[nH]c([C@@H]6CCCN6C(=O)[C@H](O)c6ccccc6)nc45)o3)ccc2[nH]1 [Example J9, (1R)-2-((2S)-2-(4-(5-(2-((2S)-1-((2R)-2-hydroxy-2-phenylacetyl)-2-pyrrolidinyl)-1H-benzimidazol-5-yl)-1,3-oxazol-2-yl)-1H-benzimidazol-2-yl)-1-pyrrolidinyl)-2-oxo-1-phenylethanol] | 7.00 to 8.34 | 
